Measurements taken from patent US20140248291A1, “Modulation of Cellular Migration” (THE UAB RESEARCH FOUNDATION, priority 2011, published 2014).

Key:
[1] = test system: BK-induced hypotension and plasma extravasation; conditions: in vivo; cited from earlier work
B2 receptor = conditions: cited from earlier work
[2] = in vivo; cited from earlier work
rat B2R [3] = target: T1, rat B2R (Rattus norvegicus, UniProt P25023); parameters: expressed in transfected cells; host or cells: Cos-7 cells; conditions: Cos-7 cells expressing the rat receptor, n=3; read-out: KI, displacement of [3H]-BK binding; cited from earlier work
T1 sequence (P25023 1-396): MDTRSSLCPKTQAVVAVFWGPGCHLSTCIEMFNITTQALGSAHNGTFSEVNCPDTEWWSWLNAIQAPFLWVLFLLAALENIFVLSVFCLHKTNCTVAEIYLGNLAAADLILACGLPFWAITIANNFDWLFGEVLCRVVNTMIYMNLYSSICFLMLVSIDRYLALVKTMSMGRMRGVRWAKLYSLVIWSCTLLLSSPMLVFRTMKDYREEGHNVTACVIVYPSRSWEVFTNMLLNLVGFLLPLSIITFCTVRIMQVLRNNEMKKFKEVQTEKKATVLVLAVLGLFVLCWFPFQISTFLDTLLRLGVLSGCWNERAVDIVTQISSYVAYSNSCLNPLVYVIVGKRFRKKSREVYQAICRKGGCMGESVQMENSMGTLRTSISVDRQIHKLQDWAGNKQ

human B1 BK receptor = target: T2, human B1 BK receptor (Homo sapiens, UniProt P46663); conditions: cited from earlier work
T2 sequence (P46663 1-353): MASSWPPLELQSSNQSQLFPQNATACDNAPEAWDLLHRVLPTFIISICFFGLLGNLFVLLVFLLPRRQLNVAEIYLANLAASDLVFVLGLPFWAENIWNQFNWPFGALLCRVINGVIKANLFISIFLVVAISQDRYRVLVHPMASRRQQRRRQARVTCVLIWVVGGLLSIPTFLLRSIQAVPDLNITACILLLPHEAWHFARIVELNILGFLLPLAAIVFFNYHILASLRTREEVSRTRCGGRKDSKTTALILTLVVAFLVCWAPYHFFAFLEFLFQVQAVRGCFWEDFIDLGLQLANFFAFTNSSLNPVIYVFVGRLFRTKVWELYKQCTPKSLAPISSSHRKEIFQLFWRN

B2R = conditions: NG108-15 cells, n=3; read-out: KI, displacement of [3H]-BK binding; cited from earlier work
rat B2R [4] = target: T1, rat B2R; conditions: n=3, read-out: IC50, BK-induced [3H]-IP3 formation; cited from earlier work
[5] = test system: BK-induced ventral root depolarizations; conditions: rat spinal cord and tail preparation, n=3; cited from earlier work
D54-MG-GFP cells = assay: slice invasion assay, acute rat brain slices; format: cell-based, human
Method: Experiments were performed on male and female Sprague-Dawley rats and were approved by the University of Alabama Institutional Animal Care and Use Committee. 17-22 days old pups were decapitated. Meninges were stripped, brain was taken out and put in ice-cold bath ACSF. Tissue was sliced using Vibrotome 3000 sectioning system. 300 μm thick slices were let recover in ACSF for 1 hour at room temperature, followed by recovery in ACSF at 37° C. in […] for 1 hour. CD31 antibody (BD Biosciences, Pharminogen, San Diego, Calif.) that labels blood vessels was added during the latter recovery period. Slices were then transferred into transwell migration cell culture inserts (BD Biosciences, San Jose, Calif.) with 8 μm pores that were pretreated with Vitronectin and blocked as described above. 50,000 D54-EGFP MG cells were then seeded on top of the slices and allowed to migrate/invade into the tissue for 2 hours at 37° C. During that period, slices were treated with 1 μM BK, 1 μM BK+5 μM HOE-140 or 5 μM HOE-140 added to the bottom of migration chamber in order to create a concentration gradient, similar to in vitro migration/invasion assay (FIG. 5C). In control experiments, drug treatment was omitted. Following double washes with PBS, slices were fixed in 4% paraformaldehyde overnight at 4° C. The following day, samples were washed three times with PBS and the slices were mounted between two coverslips for imaging on an Olympus Fluoview confocal microscope with 60× objective.
Having established a dependence of migration and BK in vitro, the role of BK signaling in brain slices was examined, where the presence of neurons, glia and endothelial cells resemble the complex environment more reminiscent of the actual invasions of glioma cells in the human brain. To this end, acute brain slices of rat cortex, that can be maintained viable for many hours of investigation, were incubated with CD31 antibody to label blood vessels and seeded with D54-MG-GFP cells. Cells were allowed to migrate and invade for 2 hours in presence or absence of BK and in presence or absence of B2R antagonist HOE-140. The experimental set-up is illustrated in FIG. 5C. Representative confocal images of glioma cells invading into the slice in the presence of BK with and without antagonist HOE-140 added are shown in FIG. 5A, a, A, b and A, c. […] Similarly, most of the cells remained on the slices when treated only with B2R antagonist, as depicted in 40 μm cross-section in FIG. 5A, f. Data were analyzed by counting the number of glioma cells that attached to blood vessels in the presence of BK (77.4±4.1%, 391 cells analyzed), BK and antagonist HOE-140 (19.3±3.4%, 461 cells analyzed) or antagonist HOE-140 (42.7±4.2%, 452 cells analyzed) and compared with control (53.5±6.3%, 403 cells analyzed) where no drugs were added. […] Another important effect observed was that the glioma cells were invading deeper into the tissue in the presence of BK when compared to controls.

SMILES | BK-induced hypotension [1] | BK-induced plasma extravasation [1] | Schild slope (B2 receptor; 45Ca efflux from NG108-15 cells) | pKB, inhibition of B2 receptor-induced 45Ca efflux (B2 receptor; NG108-15 cells, n=5) | oral availability [2] | Ki (rat B2R [3]) [nM] | interaction with human B1 BK receptor (human B1 BK receptor) | Ki (B2R) [nM] | IC50 (rat B2R [4]) [nM] | IC50 [5] [nM] | glioma cells attached to blood vessels (D54-MG-GFP cells; 1 μM BK + 5 μM HOE-140, 2 h, 461 cells analyzed) [%] | glioma cells attached to blood vessels (D54-MG-GFP cells; 5 μM HOE-140 alone, 2 h, 452 cells analyzed) [%] | cells migrated up to 15 μm (D54-MG-GFP cells; HOE-140 alone) [%] | cells migrated up to 20 μm (D54-MG-GFP cells; HOE-140 alone) [%] | cells migrated up to 25 μm (D54-MG-GFP cells; HOE-140 alone) [%] | cells on top of the slice (D54-MG-GFP cells; HOE-140 alone) [%] | cells migrated up to 15 μm (D54-MG-GFP cells; HOE-140 in addition to BK) [%] | cells migrated up to 20 μm (D54-MG-GFP cells; HOE-140 in addition to BK) [%] | cells migrated up to 25 μm (D54-MG-GFP cells; HOE-140 in addition to BK) [%] | cells remained on the top of the slice (D54-MG-GFP cells; HOE-140 in addition to BK) [%]
CN(C)CCN(C)CCNC(=O)[C@@H]1CCCN1S(=O)(=O)c1ccc(NNC(=S)NC(c2ccccc2)c2ccccc2)c([N+](=O)[O-])c1 [Bradyzide] | blocks | blocks | 1.05 | 8.0±0.16 | orally available | 0.89 | does not interact | 0.51 | 11.6 ± 1.4 | 1.6 ± 0.05 |  |  |  |  |  |  |  |  |  | 
N=C(N)NCCCC(NC(=O)[C@H](N)CCCNC(=N)N)C(=O)N1CCC[C@H]1C(=O)N1C[C@H](O)C[C@H]1C(=O)NCC(=O)N[C@@H](Cc1cccs1)C(=O)N[C@@H](CO)C(=O)N1Cc2ccccc2C[C@@H]1C(=O)N1C2CCCCC2C[C@H]1C(=O)N[C@H](CCCNC(=N)N)C(=O)O (stereo partly drawn) [HOE-140, D-Arg-[Hyp^3, Thi^5, D-Tic^7, Oic^8]bradykinin] |  |  |  |  |  |  |  |  |  |  | 19.3±3.4 | 42.7±4.2 | 29.8 | 14.4 | 3.5 | 51.9 | 25.7 | 15.4 | 6.4 | 47.5
